Paper PMC9388906, “Dual inhibition of the Echinococcus multilocularis energy metabolism” (Frontiers in Veterinary Science, 2022)
Read-outs that look alike come from different tables or passages of the source.

Assays:
[1] = system: E. multilocularis GL cells (isolate Sval); experiment: GL cell viability assay (CellTiter-Glo), isolate Sval; type: cell-based, Echinococcus multilocularis; conditions: for viability at 0.1 µM: Echinococcus multilocularis, 120 h, read-out: GL cells, viability via ATP measurements, relative to DMSO control
Procedure: (§1) To assess the in vitro efficacy of ELQs against E. multilocularis, (a) the damage-marker phosphoglucose isomerase (PGI) assay was applied against metacestodes, and (b) the germinal layer (GL) cell viability assay was applied to measure effects on isolated GL cells. Both assays are described in more detail below. The drug testing strategy was as follows: PGI assay was first conducted for overview screening at 10 μM with the parasite isolates H95 and Sval. The GL cell viability assay was performed at 0.1 μM with both isolates H95 and Sval.
(§2) The isolation of E. multilocularis GL cells was done as described previously ([17]) with minor modifications. Fifteen units of GL cells were distributed to each well of a 384 well plate in a total volume of 12.5 μL conditioned medium. The different ELQs were added to the wells to 0.1 μM, in quadruplicates. As a negative control 0.1% DMSO was used. The 384-well plate was incubated for 5 days at 37°C under humid nitrogen atmosphere. Thereafter, viability of the GL cells under different drug treatments was assessed by CellTiter-Glo® (Promega AG, Dübendorf, Switzerland). The CellTiter-Glo reagent was complemented with 1% Tx-100. The luciferase bioluminescence was measured at 530 nm by using the Enspire multilabel reader (PerkinElmer Life Sciences, Schwerzenbach, Switzerland). Using Microsoft Excel, the blank values were subtracted from the experimental values and the relative viability compared to DMSO was calculated. Viabilities were calculated as mean values and standard deviations for each quadruplicate.

[2] = system: E. multilocularis GL cells (isolate H95); experiment: GL cell viability assay (CellTiter-Glo), isolate H95; type: cell-based, Echinococcus multilocularis; conditions: for viability at 0.1 µM: Echinococcus multilocularis, 120 h, read-out: GL cells, viability via ATP measurements, relative to DMSO control
Procedure: as §1, §2

[3] = system: E. multilocularis metacestodes (isolate H95); experiment: PGI assay (damage marker release), metacestodes, isolate H95; type: cell-based, Echinococcus multilocularis; conditions: for cytotoxicity at 10 µM: read-out: Metacestodes, PGI assay, relative to positive control Tx-100; for EC50: read-out: EC50 metacestodes
Procedure: as §1
(§3) The PGI assay measures the amount of PGI that metacestodes release into the medium when damaged ([17], [32]). The purification and in vitro drug incubation of E. multilocularis metacestodes was conducted according to Stadelmann et al. ([32]). In short, cultures were applied for in vitro drug testing at the age of 6-8 weeks. E. multilocularis metacestodes were therefore purified by the addition of 2% saccharose and washed extensively with PBS. Purified metacestodes were suspended 1:3 with DMEM (without phenol red, supplemented with 100 U/mL penicillin, 100 μg/mL streptomycin) and distributed in 48-well plates (1 mL/well, thus 300 μL pure metacestode vesicles per well). […] The corresponding DMSO concentration was used as negative control and Tx-100 (0.1% final concentration) was used for total damage (positive control). […] After 5 days, relative PGI activities were measured and calculated as percentage of the Tx-100 control as described previously in Rufener et al. ([17]). They were calculated as mean values and standard deviations for each triplicate. […] EC50 measurements were performed twice, and averages and standard deviations of these repeated tests are given.

[4] = system: E. multilocularis metacestodes (isolate Sval); experiment: PGI assay (damage marker release), metacestodes, isolate Sval; type: cell-based, Echinococcus multilocularis; conditions: for cytotoxicity at 10 µM: Echinococcus multilocularis, 120 h, read-out: Metacestodes, PGI assay, relative to positive control Tx-100; for Activity in PGI assay (activity call): threshold >20% of Tx-100
Procedure: as §1, §3

[5] = system: Reuber rat hepatoma (Rh) cells; experiment: Mammalian cell toxicity, Alamar Blue assay; type: cell-based
Procedure: Compounds were added in a serial dilution (30–0.23 μM, 1:2 dilution steps) and in triplicates. Plates were incubated at 37°C, 5% CO2 and humid atmosphere for 5 days. Resazurin was added to a final concentration of 10 mg/L to each well, and fluorescence measured at 530 nm on an Enspire multilabel plate reader over 3 h. By using Microsoft Office Excel 2010 and a logit-log transformation of the relative growth, IC50 values were calculated. The test was performed twice for each compound, and respective averages and standard deviations are given.

[6] = system: E. multilocularis metacestodes; set-up: method as in PMID 30396011; conditions: TEM of metacestodes; cited from earlier work
[7] = system: E. multilocularis metacestodes; experiment: Succinate concentrations in culture supernatants (malate dismutation activity); type: cell-based, Echinococcus multilocularis; conditions: 10 μM; 5 days; anaerobic
Procedure: Both compounds were tested either alone or in combination at 10 μM with the above-described PGI assay for 5 days for their activity against E. multilocularis metacestodes. PGI assays were done in triplicates and two times independently. […] To assess direct effects on the MD, succinate levels were measured in the supernatants of the PGI assay, as described below. To determine whether differences between groups were significant, data was subjected to student's t-test analysis and P-values below 0.05 are given.
Succinate measurements in supernatants of drug-treated E. multilocularis metacestodes was performed with the “Succinic Acid Assay Kit” (Megazyme, Bray, Ireland). […] 20 μL of each diluted (1:20) sample or standard was used in triplicate for succinate measurements in 96-well plates (flat bottom, Greiner Bio-One GmbH, Frickenhausen, Germany). The reaction mix buffer was prepared as described in the supplier manual: per well 180 μL H2O, 20 μL solvent 1 (buffer, pH 8.4, sodium azide 0.02% w/v), 20 μL solvent 2 (NADH plus stabilizer), 20 μL solvent 3 (ATP, PEP, and CoA) and 2 μL solvent 4 (pyruvate kinase plus L-lactate dehydrogenase suspension) were added. After a 180 s pre-incubation time, a first measurement at 340 nm was done on an EnSpire multilabel plate reader (PerkinElmer Life Sciences, Schwerzenbach, Switzerland). 10 μL solvent 5 (succinyl-CoA synthetase suspension; 1:10 diluted) were then added to each well and the plate was read at 340 nm for 1 h every minute. […] Succinate levels are shown as mean values with standard deviations of biological triplicates. To determine whether differences between groups were significant, data was subjected to student's t-test analysis and P-values below 0.05 are given.

[8] = system: E. multilocularis metacestodes; experiment: PGI assay, single and combination treatment under normoxic and anaerobic conditions; type: cell-based, Echinococcus multilocularis; conditions: 10 μM each; 5 days; anaerobic (0% O2)
Procedure: The PGI assay measures the amount of PGI that metacestodes release into the medium when damaged ([17], [32]). The purification and in vitro drug incubation of E. multilocularis metacestodes was conducted according to Stadelmann et al. ([32]). In short, cultures were applied for in vitro drug testing at the age of 6-8 weeks. E. multilocularis metacestodes were therefore purified by the addition of 2% saccharose and washed extensively with PBS. Purified metacestodes were suspended 1:3 with DMEM (without phenol red, supplemented with 100 U/mL penicillin, 100 μg/mL streptomycin) and distributed in 48-well plates (1 mL/well, thus 300 μL pure metacestode vesicles per well). […] The corresponding DMSO concentration was used as negative control and Tx-100 (0.1% final concentration) was used for total damage (positive control). […] After 5 days, relative PGI activities were measured and calculated as percentage of the Tx-100 control as described previously in Rufener et al. ([17]). They were calculated as mean values and standard deviations for each triplicate. EC50 calculations were calculated based on logit-log transformed values in Microsoft Office Excel 2010. EC50 measurements were performed twice, and averages and standard deviations of these repeated tests are given.
For double inhibition of the mitochondrial energy pathways of E. multilocularis, quinazoline as an inhibitor of the anaerobic MD ([29]) was applied in combination with ELQ-400 as an inhibitor of the ETC. Both compounds were tested either alone or in combination at 10 μM with the above-described PGI assay for 5 days for their activity against E. multilocularis metacestodes. PGI assays were done in triplicates and two times independently. […] Results of the assays were calculated as mean values and standard deviations for each biological triplicate were calculated as relative percentage to the Tx-100 control. To assess direct effects on the MD, succinate levels were measured in the supernatants of the PGI assay, as described below. […]

[9] = isolate Sval, 0.1 μM, 5 days, nitrogen atmosphere, mean (SD), active if <30%
[10] = isolate H95, 0.1 μM, 5 days, nitrogen atmosphere, mean (SD), active if <30%
[11] = Echinococcus multilocularis, 120 h, isolate H95, 10 μM, 5 days, normoxic, mean (SD) of triplicates, active if >20%
[12] = isolate Sval, 10 μM, 5 days, normoxic, mean (SD) of triplicates, active if >20%
[13] = Echinococcus multilocularis, 120 h
[14] = Rattus norvegicus, 120 h, confluent Rh cells, Alamar blue, 5 days, range tested 30–0.23 μM, mean (SD) of two tests, read-out: IC50 Rh confluent
[15] = Rattus norvegicus, 120 h, preconfluent Rh cells, Alamar blue, 5 days, range tested 30–0.23 μM, mean (SD) of two tests, read-out: IC50 Rh preconfluent
[16] = Echinococcus multilocularis, 120 h, isolate H95, PGI assay, 5 days, range tested 30–0.12 μM, mean (SD) of two tests
[17] = isolate H95, 10 μM, 5 days, normoxic, mean (SD) of triplicates, active if >20%

CCCCCCCc1c(C)[nH]c2cc(OC)ccc2c1=O [ELQ-100]
viability at 0.1 µM [1, 9]: 57.9% | viability at 0.1 µM [2, 10]: 100% | cytotoxicity at 10 µM [3, 11]: 1.4% | cytotoxicity at 10 µM [4, 12]: 0%

CCCCCCCc1c(C)[nH]c2cc(F)cc(F)c2c1=O [ELQ-121]
IC50 ([5]; Rattus norvegicus, 120 h, read-out: IC50 Rh confluent): > 30 µM | IC50 ([5]; Rattus norvegicus, 120 h, read-out: IC50 Rh preconfluent): > 30 µM | viability at 0.1 µM [1]: 7.3% | viability at 0.1 µM [2]: 1% | EC50 [3, 13]: 1.19 µM | cytotoxicity at 10 µM [3, 13]: 15.2% | cytotoxicity at 10 µM [4]: 20.9% | Activity in PGI assay (activity call) ([4]; isolate Sval, 10 μM): activity

CCCCCCCc1c(C)[nH]c2ccccc2c1=O [ELQ-127]
viability at 0.1 µM [1, 9]: 40.4% | viability at 0.1 µM [2, 10]: 17.2% | cytotoxicity at 10 µM [3, 11]: 11.7% | cytotoxicity at 10 µM [4, 12]: 2.5%

CCCCCCCc1c(C)[nH]c2cccc(F)c2c1=O [ELQ-136]
IC50 [5, 14]: > 30 µM | IC50 [5, 15]: > 30 µM | viability at 0.1 µM [1, 9]: 15.1% | viability at 0.1 µM [2, 10]: 8.4% | cytotoxicity at 10 µM [3, 11]: 21.4% | EC50 [3, 16]: 0.22 µM | cytotoxicity at 10 µM [4, 12]: 7%

Cc1[nH]c2ccccc2c(=O)c1-c1ccc(Oc2ccc(OC(F)(F)F)cc2)cc1 [ELQ-271]
IC50 ([5]; confluent Rh cells, Alamar blue, 5 days, range tested 30–0.23 μM, mean (SD) of two tests, read-out: IC50 Rh confluent): > 30 µM | IC50 ([5]; preconfluent Rh cells, Alamar blue, 5 days, range tested 30–0.23 μM, mean (SD) of two tests, read-out: IC50 Rh preconfluent): 8.64 µM | GL cells, viability via ATP measurements, relative to DMSO control [1, 9]: 25.4 (7.2) % | GL cells, viability via ATP measurements, relative to DMSO control [2, 10]: 2.7 (1.6) % | Metacestodes, PGI assay, relative to positive control Tx-100 [3, 17]: 33 (1.7) % | EC50 ([3]; isolate H95, PGI assay, 5 days, range tested 30–0.12 μM, mean (SD) of two tests): 0.24 µM | Metacestodes, PGI assay, relative to positive control Tx-100 [4, 12]: 56.9 (4.3) % | Activity in PGI assay (activity call) ([4]; isolate Sval, 10 μM): activity

COc1cc2[nH]c(C)c(-c3ccc(Oc4ccc(OC(F)(F)F)cc4)cc3)c(=O)c2cc1Cl [ELQ-300]
GL cells, viability via ATP measurements, relative to DMSO control [1, 9]: 46.9 (9.6) % | GL cells, viability via ATP measurements, relative to DMSO control [2, 10]: 84.0 (7.0) % | Metacestodes, PGI assay, relative to positive control Tx-100 [3, 17]: 6.6 (2.2) % | Metacestodes, PGI assay, relative to positive control Tx-100 [4, 12]: 7.6 (1.1) %

COc1cc2[nH]c(C)c(-c3ccc(Oc4ccc(OC(F)(F)F)cc4)cc3)c(=O)c2cc1F [ELQ-316]
GL cells, viability via ATP measurements, relative to DMSO control [1, 9]: 58 (5.3) % | GL cells, viability via ATP measurements, relative to DMSO control [2, 10]: 81.1 (9.5) % | Metacestodes, PGI assay, relative to positive control Tx-100 [3, 17]: 21.4 (0.1) % | Metacestodes, PGI assay, relative to positive control Tx-100 [4, 12]: 4.6 (1.3) %

CCCCCCCc1c(C)[nH]c2cc(OC)c(F)cc2c1=O [ELQ-433]
viability at 0.1 µM [1, 9]: 62.1% | viability at 0.1 µM [2, 10]: 96.4% | cytotoxicity at 10 µM [3, 11]: 4.3% | cytotoxicity at 10 µM [4, 12]: 1.8%

CCCCCCCCCCCc1c(C)[nH]c2cc(OC)c(Cl)cc2c1=O [ELQ-434]
viability at 0.1 µM [1, 9]: 81.3% | viability at 0.1 µM [2, 10]: 33.3% | cytotoxicity at 10 µM [3, 11]: 0.4% | cytotoxicity at 10 µM [4, 12]: 0.6%

CCCCCCCCCCCc1c(C)[nH]c2cc(OC)c(F)cc2c1=O [ELQ-435]
viability at 0.1 µM [1, 9]: 80.1% | viability at 0.1 µM [2, 10]: 15.6% | cytotoxicity at 10 µM [3, 11]: 2.6% | cytotoxicity at 10 µM [4, 12]: 0%

CCCCCCCCCCCc1c(C)[nH]c2ccccc2c1=O [ELQ-436]
viability at 0.1 µM [1, 9]: 16.4% | viability at 0.1 µM [2, 10]: 14% | cytotoxicity at 10 µM [3, 11]: 3.4% | cytotoxicity at 10 µM [4, 12]: 3.1%

CCCCCCCCCCCc1c(C)[nH]c2cc(F)cc(F)c2c1=O [ELQ-437]
IC50 [5, 14]: > 30 µM | IC50 [5, 15]: > 30 µM | viability at 0.1 µM [1, 9]: 19.1% | viability at 0.1 µM [2, 10]: 19.7% | cytotoxicity at 10 µM [3, 11]: 37.6% | EC50 [3, 16]: 1.71 µM | cytotoxicity at 10 µM [4, 12]: 33.1% | Activity in PGI assay (activity call) ([4]; isolate Sval, 10 μM): activity

CC(C)(C)[C@H]1CC[C@H](CC2=C(O)C(=O)c3ccccc3C2=O)CC1 [buparvaquone]
Concentration already affecting the parasite ultrastructure (electron dense mitochondrial matrix) [6]: 0.3 µM

c1ccc2ncncc2c1 [quinazoline, reference compound]
Release of succinate by metacestodes compared to DMSO control [7]: significant reduction | PGI release of metacestodes relative to Tx-100 [8]: no PGI release
